Assay results reported in ChEMBL document CHEMBL5126669, “Discovery of 5,7-Dihydro-6H-pyrrolo[2,3-d]pyrimidin-6-ones as Highly Selective CDK2 Inhibitors” (ACS Med Chem Lett, 2022).

Key:
[1] = molecular target: Cyclin-dependent kinase 2/cyclin E1 (Homo sapiens, UniProt P24941); assay: Inhibition of recombinant human N-terminal GST-tagged full-length CDK2/Flag-tagged cyclinE1 expressed in baculovirus expression system using eIF4E-binding protein-1 peptide as substrate incubated for 1 hr in presence of ATP by HTRF assay
[2] = species: Homo sapiens; assay: Selectivity ratio of IC50 for inhibition of CDK4/cyclin D1 (unknown origin) to IC50 for inhibition recombinant human N-terminal GST-tagged full-length CDK2/Flag-tagged cyclinE1 expressed in baculovirus expression system
[3] = species: Homo sapiens; assay: Selectivity ratio of IC50 for inhibition of CDK6/cyclin D1 (unknown origin) to IC50 for inhibition recombinant human N-terminal GST-tagged full-length CDK2/Flag-tagged cyclinE1 expressed in baculovirus expression system
[4] = molecular target: T1, Cyclin-dependent kinase 2 (Homo sapiens, UniProt P24941); assay: Inhibition of CDK2 in human COV318 cells incubated for overnight in presence of human whole blood by HTRF assay; format: cell-based
[5] = Intrinsic clearance in human liver microsomes at 1 uM measured upto 30 mins by LC/MS analysis; format: ADME, Microsome; conditions: read-out: CLH (converted)
[6] = Cmax in Sprague-Dawley rat at 3 mg/kg, po measured upto 24 hrs by LC-MS/MS analysis; format: ADME, organism-based; set-up: dose 3 mg/kg, time < 24 hrs, route po; conditions: in vivo
[7] = Cmax in Cynomolgus monkey at 2 mg/kg, po measured upto 24 hrs by LC-MS/MS analysis; format: ADME, organism-based, Macaca fascicularis; set-up: dose 2 mg/kg, time < 24 hrs, route po; conditions: in vivo
[8] = AUC in Sprague-Dawley rat at 3 mg/kg, po measured upto 24 hrs by LC-MS/MS analysis; format: ADME, organism-based; set-up: dose 3 mg/kg, time < 24 hrs, route po; conditions: in vivo
[9] = AUC in Cynomolgus monkey at 2 mg/kg, po measured upto 24 hrs by LC-MS/MS analysis; format: ADME, organism-based, Macaca fascicularis; set-up: dose 2 mg/kg, time < 24 hrs, route po; conditions: in vivo
[10] = Oral bioavailability in Sprague-Dawley rat at 3 mg/kg measured upto 24 hrs by LC-MS/MS analysis; format: ADME, organism-based; conditions: in vivo
[11] = Oral bioavailability in Cynomolgus monkey at 2 mg/kg measured upto 24 hrs by LC-MS/MS analysis; format: ADME, organism-based, Macaca fascicularis; conditions: in vivo
[12] = Hepatic blood flow in Sprague-Dawley rat at 0.5 mg/kg, iv measured upto 24 hrs by LC-MS/MS analysis; format: ADME, organism-based; conditions: in vivo
[13] = Hepatic blood flow in Cynomolgus monkey at 0.3 mg/kg, iv measured upto 24 hrs by LC-MS/MS analysis; format: ADME, organism-based, Macaca fascicularis; conditions: in vivo
[14] = Volume of distribution at steady state in Sprague-Dawley rat at 0.5 mg/kg, iv measured upto 24 hrs by LC-MS/MS analysis; format: ADME, organism-based; conditions: Sprague-Dawley, in vivo, read-out: Vdss
[15] = Volume of distribution at steady state in Cynomolgus monkey at 0.3 mg/kg, iv measured upto 24 hrs by LC-MS/MS analysis; format: ADME, organism-based, Macaca fascicularis; conditions: in vivo, read-out: Vdss
[16] = molecular target: Cytochrome P450 3A4 (Homo sapiens, UniProt P08684); assay: Inhibition of CYP3A4 (unknown origin) at >25 uM; format: ADME
Chain of Cytochrome P450 3A4 (P08684 whole entry): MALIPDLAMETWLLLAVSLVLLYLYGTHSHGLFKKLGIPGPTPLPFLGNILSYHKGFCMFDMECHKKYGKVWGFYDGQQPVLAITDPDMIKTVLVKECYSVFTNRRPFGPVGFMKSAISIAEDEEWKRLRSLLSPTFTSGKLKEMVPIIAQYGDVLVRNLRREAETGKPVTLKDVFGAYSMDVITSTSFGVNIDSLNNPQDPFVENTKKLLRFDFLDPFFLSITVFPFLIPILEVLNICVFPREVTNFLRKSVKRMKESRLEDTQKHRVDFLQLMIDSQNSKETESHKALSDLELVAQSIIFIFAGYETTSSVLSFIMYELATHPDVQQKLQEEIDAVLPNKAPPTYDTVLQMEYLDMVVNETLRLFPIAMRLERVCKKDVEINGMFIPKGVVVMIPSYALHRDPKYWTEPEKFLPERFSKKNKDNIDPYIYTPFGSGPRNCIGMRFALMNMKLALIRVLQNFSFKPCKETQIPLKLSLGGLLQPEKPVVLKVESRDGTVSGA

[17] = species: Homo sapiens; assay: Selectivity ratio of IC50 for inhibition of CDK4 (unknown origin) to IC50 for inhibition recombinant human N-terminal GST-tagged full-length CDK2/Flag-tagged cyclinE1 expressed in baculovirus expression system
[18] = species: Homo sapiens; assay: Selectivity ratio of IC50 for inhibition of CDK1 (unknown origin) to IC50 for inhibition recombinant human N-terminal GST-tagged full-length CDK2/Flag-tagged cyclinE1 expressed in baculovirus expression system
[19] = species: Homo sapiens; assay: Selectivity ratio of IC50 for inhibition of CDK7 (unknown origin) to IC50 for inhibition recombinant human N-terminal GST-tagged full-length CDK2/Flag-tagged cyclinE1 expressed in baculovirus expression system
[20] = species: Homo sapiens; assay: Selectivity ratio of IC50 for inhibition of CDK9 (unknown origin) to IC50 for inhibition recombinant human N-terminal GST-tagged full-length CDK2/Flag-tagged cyclinE1 expressed in baculovirus expression system
[21] = species: Homo sapiens; assay: Selectivity ratio of IC50 for inhibition of CDK6 (unknown origin) to IC50 for inhibition recombinant human N-terminal GST-tagged full-length CDK2/Flag-tagged cyclinE1 expressed in baculovirus expression system
[22] = molecular target: hERG (KCNH2) (Homo sapiens, UniProt Q12809); assay: Displacement of [3H]Dofetilide from human ERG at 10 uM incubated for 24 hrs by filter binding assay relative to control; format: toxicity; conditions: probe [3H]dofetilide
Chain of hERG (KCNH2) (Q12809 whole entry): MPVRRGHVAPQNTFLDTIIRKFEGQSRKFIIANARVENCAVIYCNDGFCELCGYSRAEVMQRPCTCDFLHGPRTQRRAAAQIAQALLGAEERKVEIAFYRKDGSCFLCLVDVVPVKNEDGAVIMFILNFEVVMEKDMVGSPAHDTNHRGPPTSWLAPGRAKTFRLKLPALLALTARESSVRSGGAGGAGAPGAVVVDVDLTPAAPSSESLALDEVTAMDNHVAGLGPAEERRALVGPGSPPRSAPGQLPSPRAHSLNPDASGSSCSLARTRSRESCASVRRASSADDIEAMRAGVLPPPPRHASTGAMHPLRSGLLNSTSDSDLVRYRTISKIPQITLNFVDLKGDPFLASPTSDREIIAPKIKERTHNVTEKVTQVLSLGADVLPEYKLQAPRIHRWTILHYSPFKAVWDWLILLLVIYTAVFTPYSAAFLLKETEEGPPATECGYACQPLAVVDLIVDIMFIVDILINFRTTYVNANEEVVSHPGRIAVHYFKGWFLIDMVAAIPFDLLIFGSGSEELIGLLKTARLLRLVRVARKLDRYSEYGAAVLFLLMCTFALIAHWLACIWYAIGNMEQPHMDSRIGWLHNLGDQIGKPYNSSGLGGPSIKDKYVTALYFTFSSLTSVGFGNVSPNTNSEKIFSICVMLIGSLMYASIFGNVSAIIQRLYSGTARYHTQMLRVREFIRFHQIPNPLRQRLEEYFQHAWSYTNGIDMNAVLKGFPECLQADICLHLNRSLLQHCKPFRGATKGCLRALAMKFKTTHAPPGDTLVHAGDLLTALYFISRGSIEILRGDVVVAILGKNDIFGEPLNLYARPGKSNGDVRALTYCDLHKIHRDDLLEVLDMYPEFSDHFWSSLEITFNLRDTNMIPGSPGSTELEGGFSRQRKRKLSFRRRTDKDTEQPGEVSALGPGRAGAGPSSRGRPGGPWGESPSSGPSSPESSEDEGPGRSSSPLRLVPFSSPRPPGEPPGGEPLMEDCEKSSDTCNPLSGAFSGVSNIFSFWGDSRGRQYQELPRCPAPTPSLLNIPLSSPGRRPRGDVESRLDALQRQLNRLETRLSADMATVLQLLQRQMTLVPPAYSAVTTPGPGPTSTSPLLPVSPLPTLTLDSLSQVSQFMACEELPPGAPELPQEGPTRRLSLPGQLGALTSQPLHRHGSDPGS

[23] = molecular target: T2, Cytochrome P450 1A2 (Homo sapiens, UniProt P05177); assay: Inhibition of CYP1A2 (unknown origin) at >25 uM; format: ADME
T2 sequence (P05177 whole entry): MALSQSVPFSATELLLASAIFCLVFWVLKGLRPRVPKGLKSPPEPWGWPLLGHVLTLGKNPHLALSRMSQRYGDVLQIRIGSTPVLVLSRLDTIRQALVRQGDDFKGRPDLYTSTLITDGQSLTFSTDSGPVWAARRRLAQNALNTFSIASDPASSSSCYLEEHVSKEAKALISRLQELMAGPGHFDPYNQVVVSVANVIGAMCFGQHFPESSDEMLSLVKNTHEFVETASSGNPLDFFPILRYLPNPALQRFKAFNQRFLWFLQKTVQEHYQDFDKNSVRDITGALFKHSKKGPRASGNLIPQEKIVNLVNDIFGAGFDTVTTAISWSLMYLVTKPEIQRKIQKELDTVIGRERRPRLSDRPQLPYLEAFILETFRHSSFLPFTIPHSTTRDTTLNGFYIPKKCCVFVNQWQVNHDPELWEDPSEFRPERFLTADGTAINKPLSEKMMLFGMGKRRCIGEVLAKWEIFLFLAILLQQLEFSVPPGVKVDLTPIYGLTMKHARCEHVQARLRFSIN

[24] = molecular target: T3, Cytochrome P450 2C8 (Homo sapiens, UniProt P10632); assay: Inhibition of CYP2C8 (unknown origin) at >25 uM; format: ADME
T3 sequence (P10632 whole entry): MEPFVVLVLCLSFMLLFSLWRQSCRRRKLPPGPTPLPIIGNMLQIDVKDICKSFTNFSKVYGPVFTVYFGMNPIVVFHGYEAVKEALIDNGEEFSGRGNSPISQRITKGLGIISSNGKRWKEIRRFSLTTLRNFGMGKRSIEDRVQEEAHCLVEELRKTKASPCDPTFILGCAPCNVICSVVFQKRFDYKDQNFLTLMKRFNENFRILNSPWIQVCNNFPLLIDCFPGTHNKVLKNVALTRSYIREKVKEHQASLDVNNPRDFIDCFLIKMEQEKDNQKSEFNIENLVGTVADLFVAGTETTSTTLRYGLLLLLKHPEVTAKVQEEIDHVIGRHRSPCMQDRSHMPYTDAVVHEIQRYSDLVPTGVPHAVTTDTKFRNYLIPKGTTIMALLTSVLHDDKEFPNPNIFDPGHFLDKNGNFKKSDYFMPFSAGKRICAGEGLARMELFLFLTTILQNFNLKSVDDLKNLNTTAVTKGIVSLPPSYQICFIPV

[25] = molecular target: Cytochrome P450 2C19 (Homo sapiens, UniProt P33261); assay: Inhibition of CYP2C19 (unknown origin) at >25 uM; format: ADME
Chain of Cytochrome P450 2C19 (P33261 whole entry): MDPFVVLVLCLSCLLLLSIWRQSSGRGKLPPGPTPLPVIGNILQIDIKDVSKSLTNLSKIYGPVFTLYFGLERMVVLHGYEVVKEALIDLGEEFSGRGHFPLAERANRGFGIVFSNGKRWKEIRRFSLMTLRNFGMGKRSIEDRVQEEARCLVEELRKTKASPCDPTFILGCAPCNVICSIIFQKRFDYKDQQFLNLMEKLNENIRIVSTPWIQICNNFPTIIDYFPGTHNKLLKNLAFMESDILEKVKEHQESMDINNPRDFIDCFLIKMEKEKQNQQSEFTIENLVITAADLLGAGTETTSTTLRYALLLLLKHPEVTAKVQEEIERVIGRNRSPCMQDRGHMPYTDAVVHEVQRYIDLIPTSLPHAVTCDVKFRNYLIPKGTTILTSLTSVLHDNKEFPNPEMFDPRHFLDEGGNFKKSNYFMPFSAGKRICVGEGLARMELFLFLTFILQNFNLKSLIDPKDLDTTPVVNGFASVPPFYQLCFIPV

[26] = molecular target: T4, Cytochrome P450 2B6 (Homo sapiens, UniProt P20813); assay: Inhibition of CYP2B6 (unknown origin) at >25 uM; format: ADME
T4 sequence (P20813 whole entry): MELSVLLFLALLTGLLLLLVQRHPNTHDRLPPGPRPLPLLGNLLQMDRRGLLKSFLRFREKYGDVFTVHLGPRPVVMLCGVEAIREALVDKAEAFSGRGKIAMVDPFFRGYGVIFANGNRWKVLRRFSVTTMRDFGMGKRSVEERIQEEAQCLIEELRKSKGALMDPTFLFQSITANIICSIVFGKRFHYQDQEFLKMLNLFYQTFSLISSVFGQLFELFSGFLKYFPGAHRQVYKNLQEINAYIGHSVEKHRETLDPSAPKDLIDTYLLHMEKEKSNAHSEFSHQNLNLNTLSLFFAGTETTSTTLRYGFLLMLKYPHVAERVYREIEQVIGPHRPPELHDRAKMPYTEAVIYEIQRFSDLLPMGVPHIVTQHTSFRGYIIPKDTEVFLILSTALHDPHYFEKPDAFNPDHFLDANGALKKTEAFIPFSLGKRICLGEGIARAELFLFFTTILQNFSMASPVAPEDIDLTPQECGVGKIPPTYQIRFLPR

[27] = molecular target: Cytochrome P450 2C9 (Homo sapiens, UniProt P11712); assay: Inhibition of CYP2C9 (unknown origin) at >25 uM; format: ADME
Chain of Cytochrome P450 2C9 (P11712 whole entry): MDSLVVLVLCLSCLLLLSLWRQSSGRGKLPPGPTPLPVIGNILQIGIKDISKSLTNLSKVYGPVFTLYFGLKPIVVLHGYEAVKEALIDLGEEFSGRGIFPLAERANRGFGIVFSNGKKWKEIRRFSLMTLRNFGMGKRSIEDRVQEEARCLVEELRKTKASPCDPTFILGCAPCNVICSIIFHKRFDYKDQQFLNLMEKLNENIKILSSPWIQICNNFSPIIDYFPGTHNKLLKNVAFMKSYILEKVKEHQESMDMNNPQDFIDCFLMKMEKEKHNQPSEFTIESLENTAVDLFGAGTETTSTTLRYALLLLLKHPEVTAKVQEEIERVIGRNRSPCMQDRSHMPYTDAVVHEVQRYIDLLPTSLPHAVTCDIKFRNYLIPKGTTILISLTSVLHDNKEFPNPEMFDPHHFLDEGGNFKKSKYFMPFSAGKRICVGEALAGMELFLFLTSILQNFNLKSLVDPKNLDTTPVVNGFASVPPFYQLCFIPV

[28] = molecular target: Cytochrome P450 2D6 (Homo sapiens, UniProt P10635); assay: Inhibition of CYP2D6 (unknown origin) at >25 uM; format: ADME
Chain of Cytochrome P450 2D6 (P10635 whole entry): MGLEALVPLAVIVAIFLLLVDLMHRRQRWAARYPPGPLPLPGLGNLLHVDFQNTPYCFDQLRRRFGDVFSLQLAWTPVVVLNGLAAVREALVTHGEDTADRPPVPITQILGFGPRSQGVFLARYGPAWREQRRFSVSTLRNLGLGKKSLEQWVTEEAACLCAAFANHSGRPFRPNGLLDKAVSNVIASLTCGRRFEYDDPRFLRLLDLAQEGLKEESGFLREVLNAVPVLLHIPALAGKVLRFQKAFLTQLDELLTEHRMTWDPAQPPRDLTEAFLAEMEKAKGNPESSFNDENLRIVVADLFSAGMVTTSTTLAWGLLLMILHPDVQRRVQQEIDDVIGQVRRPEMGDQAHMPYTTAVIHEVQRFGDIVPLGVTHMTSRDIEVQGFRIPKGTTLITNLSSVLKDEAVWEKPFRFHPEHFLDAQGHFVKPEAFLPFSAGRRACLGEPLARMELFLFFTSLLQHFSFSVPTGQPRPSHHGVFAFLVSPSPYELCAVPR

[29] = Solubility of compound; format: physicochemical
[30] = molecular target: T1, Cyclin-dependent kinase 2; assay: Inhibition of CDK2 in human COV318 cells incubated for overnight in presence of phospho-Rb by HTRF assay; format: cell-based
[31] = molecular target: Cyclin-dependent kinase 1 (Homo sapiens, UniProt P06493); assay: Inhibition of CDK1 in human OVCAR3 cells incubated for 30 mins in presence of pNPM T199 by western blot analysis; format: cell-based, OVCAR-3
Chain of Cyclin-dependent kinase 1 (P06493 whole entry): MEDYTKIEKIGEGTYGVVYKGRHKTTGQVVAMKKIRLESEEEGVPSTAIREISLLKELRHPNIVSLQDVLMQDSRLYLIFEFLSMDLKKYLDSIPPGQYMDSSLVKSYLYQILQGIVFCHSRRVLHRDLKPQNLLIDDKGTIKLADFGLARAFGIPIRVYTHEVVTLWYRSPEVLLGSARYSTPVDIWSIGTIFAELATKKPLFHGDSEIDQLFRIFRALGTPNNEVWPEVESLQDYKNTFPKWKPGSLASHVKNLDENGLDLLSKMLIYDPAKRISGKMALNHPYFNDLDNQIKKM

[32] = species: Homo sapiens; assay: Selectivity ratio of IC50 for inhibition of CDK1 in human OVCAR3 cells to IC50 for inhibition of CDK2 in human COV318 cells; format: cell-based
[33] = species: Homo sapiens; assay: Selectivity ratio of IC50 for inhibition of CDK1/cyclin B (unknown origin) to IC50 for inhibition recombinant human N-terminal GST-tagged full-length CDK2/Flag-tagged cyclinE1 expressed in baculovirus expression system

`Cn1cc(S(=O)(=O)N2CCC(Nc3ncc4c(n3)N([C@@H]3CCC[C@@H](O)C3)C(=O)C43CC3)CC2)cn1` gave an IC50 [1] of 0.002 µM, a Ratio IC50 [2] of 110 and a Ratio IC50 [3] of 35. For the same molecule, the IC50 [4] was 0.316 µM, the predicted hepatic clearance at 1 µM [5] was 16.7 mL/min/kg and the Cmax [6] was 562 nM. The Cmax [7] was 56 nM, the AUC at 24 h [8] was 1.13 µM·h and the AUC at 24 h [9] was 0.388 µM·h. It also gave a bioavailability [10] of 59%, a bioavailability [11] of 12% and a QH [12] of 96%. It also gave a QH [13] of 48%, a Vd [14] of 2 L/kg and a Vd [15] of 1.2 L/kg. The “inhibition (INH)” value [16] was “Active”, the Ratio IC50 [17] was 110 and the Ratio IC50 [18] was 660. It also gave a Ratio IC50 [19] of 1100, a Ratio IC50 [20] of 2500 and a Ratio IC50 [21] of 35. For the same molecule, the inhibition at 24 h, 10 µM [22] was 7.2%, the “inhibition (INH)” value [23] was “Active” and the “inhibition (INH)” value [24] was “Active”. For the same molecule, the “inhibition (INH)” value [25] was “Active”, the “inhibition (INH)” value [26] was “Active” and the “inhibition (INH)” value [27] was “Active”. The “inhibition (INH)” value [28] was “Active” and the solubility [29] was greater than 400 µg/mL.
With `NS(=O)(=O)c1ccc(Nc2ncc3c(n2)N(C2CCCC2)C(=O)C32CC2)cc1` the IC50 [1] was 0.004 µM, the IC50 [30] was 0.0049 µM and the IC50 [31] was 1.2 µM. The Ratio IC50 [32] was 245, the Ratio IC50 [33] was 250 and the Ratio IC50 [2] was 5. It also gave a Ratio IC50 [3] of 7, an IC50 [4] of 7.6 µM and a predicted hepatic clearance at 1 µM [5] of 13.3 mL/min/kg.
